Counter-ions that a name gives are not always drawn.
Tested on: overactive bladder model rat
Experiment: Cystometry under nonanesthesized condition in overactive bladder model (BOO) rats
Format: in vivo
Excerpt: (1) Preparation of Overactive Bladder Model Rats
Wistar female rats (6 to 7 weeks old) were employed for the preparation. A catheter was inserted into the urinary bladder through the external urethral orifice under anesthesia with sodium pentobarbital in rats. After subjecting the abdominal region to the median section, the proximal urethra was ligated together with the catheter at 2 sites by a silk blade (5-0), and the catheter was removed.
(2) Cystometry Under Nonanesthesized Condition
At more than 6 weeks after surgery, the silk blade used for ligation of the urethra was removed under anesthesia with sodium pentobarbital. A catheter for infusion of physiological saline and for the measurement of the intravesical pressure was inserted into the urinary bladder through the top part of the urinary bladder and fixed. A catheter for administration of a drug was inserted into the jugular vein, and the rat was returned to a housing cage after recovery. At 2 days after surgery, the catheter inserted into the urinary bladder was connected to a syringe pump for continuous infusion of physiological saline (7-20 mL/hr) to induce the micturition reflex and to a pressure transducer to measure the intravesical pressure with a three way stopcock. After the micturition reflex was stabilized, physiological saline or a drug was administered through the catheter for administration of a drug inserted into the jugular vein.
As the parameters evaluated, the frequency of contraction before micturition (the number of contractions for 10 min before starting of micturition), contraction pressure (mean contraction pressure for 10 min before starting of micturition), micturition pressure and interval of micturition were employed for the present test. The effect of a drug was evaluated on the basis of the inhibition ratio against the pre-dosing values (prolongation ratio in the micturition interval).
Tamsulosin hydrochloride was administered intravenously in increasing the doses at a common ratio of about 3 (1, 3 and 10 μg/kg). The action of tamsulosin hydrochloride (3 μg/kg) in combination with Solifenacin succinate (3 mg/kg) on each parameter was also evaluated.
Each test was performed at n=5, and the results are expressed as mean±standard error. Student's t-test and Tukey's test were used for comparison between 2 groups and among multiple groups, respectively.

Row | Compound | interval of micturition, prolongation ratio (3 mg/kg i.v., alone) | interval of micturition, prolongation ratio (3 μg/kg i.v., alone) | micturition pressure (10 μg/kg intravenous) | interval of micturition, prolongation ratio (10 μg/kg intravenous, vs pre-dosing value) | frequency of contraction before micturition (number of contractions for 10 min before starting of micturition) (tamsulosin hydrochloride 1, 3 and 10 μg/kg intravenous, vs pre-dosing values, n=5, FIG. 1A) | contraction pressure before micturition (mean contraction pressure for 10 min before starting of micturition) (tamsulosin hydrochloride 1, 3 and 10 μg/kg intravenous, vs pre-dosing values, n=5, FIG. 1B) | micturition pressure (tamsulosin hydrochloride alone, comparison arm of the combination test (3 μg/kg i.v.))
1 | O=C(O[C@H]1CN2CCC1CC2)N1CCc2ccccc2[C@@H]1c1ccccc1 [solifenacin succinate, (+)-(1S,3′R)-quinuclidin-3′-yl 1-phenyl-1,2,3,4-tetrahydroisoquinoline-2-carboxylate] | 2.6% | – | – | – | – | – | –
2 | CCOc1ccccc1OCCN[C@H](C)Cc1ccc(OC)c(S(N)(=O)=O)c1 [tamsulosin hydrochloride, (R)(−)-5-[2-[[2-(o-ethoxyphenoxy)ethyl]amino]propyl]-2-methoxybenzene-sulfonamide] | – | 2.1% | no influence | 9.2% | inhibited in a dose-dependent manner | inhibited in a dose-dependent manner | no effect

Source: patent publication US20070270459A1, “Overactive bladder treating drug” (ASTELLAS PHARMA INC., priority 2002, published 2007)
